Experiments:
SARS-CoV-2 nsp13 [1] = molecular target: T1, SARS-CoV-2 nsp13 (Severe acute respiratory syndrome coronavirus 2, UniProt P0DTD1); assay: SARS-CoV-2 nsp13 unwinding-associated activity (fluorescence, BSA-TCEP); format: biochemical; conditions: for IC50: SARS-CoV-2 nsp13-associated unwinding activity, from dose-response curves; for remaining activity at 30 µM: measured at 30 µM, read-out: Percentage of enzymatic residual activity (unwinding)
SARS-CoV-2 nsp13 [2] = molecular target: T1, SARS-CoV-2 nsp13; assay: SARS-CoV-2 nsp13 ATPase-associated activity (Biomol Green, BSA-TCEP); format: biochemical; conditions: for IC50: SARS-CoV-2 nsp13-associated ATPase activity, from dose-response curves; for remaining activity at 30 µM: measured at 30 µM, read-out: Percentage of enzymatic residual activity (ATPase)
[3] = Cellular toxicity assay (GFP signal as viability); format: cell-based; conditions: African green monkey; Vero cells; read-out: CC50, concentration required to reduce Vero cells viability by 50%
Description: Vero E6-green fluorescent protein (GFP) cells (Janssen Pharmaceutical were maintained in Dulbecco’s modified Eagle’s medium (DMEM, Gibco) supplemented with 10% v/v foetal beef serum (FBS, Gibco), 0.075% Sodium Bicarbonate (7.5% solution, Gibco) and 1X Pen-strep (Euroclone) and kept under 5% CO2 on 37 ◦C. The cells were seeded at 10 000 cells/well in 96-well black cell-treated plates (PerkinElmer). The following day, cells were incubated with the control compounds at different concentrations. Compound was dissolved in 0.1% DMSO. Seventy-two hours post infection the GPF signal, as direct index of cellular viability, was quantified by measuring the total-well fluorescence with a Victor 3 multiplate reader (PerkinElmer) set to excitation and emission wavelengths of 485 and 535 nm, respectively.
The percentage of induced cytopathic effects (CPE) was calculated considering the mock as 100% of cell viability, and the readout from empty wells as blank. The compound half-maximal cytopathic concentration (CC50), was determined via non-linear regression by using on Prism 9 v. 9.4.1 software (GraphPad) the built-in function dose-response inhibition, log-concentration-normalized response. Experimental points represent the average and standard deviation of at least two sets of independent triplicates.

[4] = Activity in enzyme assay IC50 Unwinding BSA-TCEP
[5] = Activity in enzyme assay IC50 ATPase BSA-TCEP
[6] = read-out: Activity in enzyme assay IC50 Unwinding BSA-TCEP
[7] = read-out: Activity in enzyme assay IC50 ATPase BSA-TCEP

| SMILES | IC50 (SARS-CoV-2 nsp13 [1]; [6]) [µM] | IC50 (SARS-CoV-2 nsp13 [2]; [7]) [µM] | other results |
| --- | --- | --- | --- |
| Cc1ccc(Cn2cc(C(=O)/C=C(\O)C(=O)O)c3ccccc32)cc1 [7b] | – | – | IC50 (SARS-CoV-2 nsp13 [1]; [4]): 20.6 ± 3.22 µM; IC50 (SARS-CoV-2 nsp13 [2]; [5]): 8.33 ± 0.45 µM |
| O=C(/C=C(\O)C(=O)O)/C=C/c1cn(Cc2ccc(F)cc2)c2ccc(Cl)cc12 [5i, (2Z,5E)-6-(5-chloro-1-(4-fluorobenzyl)-1H-indol-3-yl)-2-hydroxy-4-oxohexa-2,5-dienoic acid] | 0.47 ± 0.01 | 26.3 ± 2.52 | selectivity for unwinding over ATPase (SARS-CoV-2 nsp13 [1]; IC50 unwinding vs IC50 ATPase): 2 order of magnitude; gain in activity on unwinding with respect to the hit 4 (SARS-CoV-2 nsp13 [1]; ratio of IC50 values): 27 fold; CC50 at 72 h [3]: > 100 µM |
| CCCCn1cc(/C=C/C(=O)/C=C(\O)C(=O)OCC)c2ccccc21 [10e, Ethyl (2Z,5E)-6-(1-butyl-1H-indol-3-yl)-2-hydroxy-4-oxohexa-2,5-dienoate] | 14.8 ± 1.18 | 5.72 ± 1.63 | – |
| CCn1cc(/C=C/C(=O)/C=C(\O)C(=O)O)c2ccccc21 [9d] | 11.8 ± 4.03 | 8.32 ± 0.08 | – |
| C=C(C)Cn1cc(/C=C/C(=O)/C=C(\O)C(=O)OCC)c2ccccc21 [10b, Ethyl (2Z,5E)-2-hydroxy-6-(1-(2-methylallyl)-1H-indol-3-yl)-4-oxohexa-2,5-dienoate] | 21.5 ± 0.23 | 7.26 ± 0.65 | – |
| O=C(/C=C(\O)C(=O)O)/C=C/c1cn(Cc2ccc(F)cc2)c2ccccc12 [5d, (2Z,5E)-6-(1-(4-fluorobenzyl)-1H-indol-3-yl)-2-hydroxy-4-oxohexa-2,5-dienoic acid] | 7.63 ± 2.48 | 9.91 ± 0.5 | – |
| CCOC(=O)/C(O)=C/C(=O)/C=C/c1cn(Cc2ccc(O)cc2)c2ccccc12 [6h, Ethyl (2Z,5E)-2-hydroxy-6-(1-(4-hydroxybenzyl)-1H-indol-3-yl)-4-oxohexa-2,5-dienoate] | 15.4 ± 1.47 | 3.7 ± 0.74 | – |
| COc1ccc(Cn2cc(/C=C/C(=O)/C=C(\O)C(=O)O)c3ccccc32)cc1 [5a, (2Z,5E)-2-hydroxy-6-(1-(4-methoxybenzyl)-1H-indol-3-yl)-4-oxohexa-2,5-dienoic acid] | 10.5 ± 0.81 | 19.9 ± 0.73 | – |
| CCOC(=O)/C(O)=C/C(=O)/C=C/c1cn(Cc2ccc(F)cc2)c2ccc(Cl)cc12 [6i, Ethyl (2Z,5E)-6-(5-chloro-1-(4-fluorobenzyl)-1H-indol-3-yl)-2-hydroxy-4-oxohexa-2,5-dienoate] | 5.22 ± 0.44 | 3.92 ± 0.96 | – |
| C/C=C/Cn1cc(/C=C/C(=O)/C=C(\O)C(=O)OCC)c2ccccc21 [10a, Ethyl (2Z,5E)-6-(1-((E)-but-2-en-1-yl)-1H-indol-3-yl)-2-hydroxy-4-oxohexa-2,5-dienoate] | 13.2 ± 1.86 | 8.79 ± 0.69 | – |
| CCOC(=O)/C(O)=C/C(=O)/C=C/c1cn(Cc2ccc(OC)cc2)c2ccccc12 [6a, Ethyl (2Z,5E)-2-hydroxy-6-(1-(4-methoxybenzyl)-1H-indol-3-yl)-4-oxohexa-2,5-dienoate] | 6.65 ± 1.2 | 2.21 ± 0.26 | – |
| O=C(O)/C(O)=C/C(=O)c1cn(Cc2ccc(OC(F)(F)F)cc2)c2ccccc12 [7e] | – | – | IC50 (SARS-CoV-2 nsp13 [1]; [4]): 22.2 ± 1.37 µM; IC50 (SARS-CoV-2 nsp13 [2]; [5]): 20.3 µM |
| CC(C)=Cn1cc(/C=C/C(=O)/C=C(\O)C(=O)O)c2ccccc21 [9c, (2Z,5E)-2-hydroxy-6-(1-(2-methylprop-1-en-1-yl)-1H-indol-3-yl)-4-oxohexa-2,5-dienoic acid] | 1.56 ± 0.16 | > 30 | remaining activity at 30 µM (SARS-CoV-2 nsp13 [2]): 98.6%; CC50 at 72 h [3]: > 100 µM |
| O=C(/C=C(\O)C(=O)O)/C=C/c1cn(S(=O)(=O)c2ccccc2)c2ccccc12 [5f] | 7.54 ± 0.76 | 5.36 ± 0.74 | – |
| CCCCn1cc(/C=C/C(=O)/C=C(\O)C(=O)O)c2ccccc21 [9e, (2Z,5E)-6-(1-butyl-1H-indol-3-yl)-2-hydroxy-4-oxohexa-2,5-dienoic acid] | – | > 30 | remaining activity at 30 µM (SARS-CoV-2 nsp13 [1]): 41%; remaining activity at 30 µM (SARS-CoV-2 nsp13 [2]): 100% |
| CCOC(=O)/C(O)=C/C(=O)/C=C/c1cn(S(=O)(=O)c2ccccc2)c2ccccc12 [6f] | 11 ± 0.37 | 7.07 ± 0.74 | – |
| CCOC(=O)/C(O)=C/C(=O)/C=C/c1cn(CCC(C)C)c2ccccc12 [10f, Ethyl (2Z,5E)-2-hydroxy-6-(1-isopentyl-1H-indol-3-yl)-4-oxohexa-2,5-dienoate] | 13.5 ± 0.25 | 6.27 ± 0.2 | – |
| CCOC(=O)/C(O)=C/C(=O)c1cn(Cc2ccc(C)cc2)c2ccccc12 [8b] | – | – | IC50 (SARS-CoV-2 nsp13 [1]; [4]): 13.2 ± 2.76 µM; IC50 (SARS-CoV-2 nsp13 [2]; [5]): 7.01 ± 0.05 µM |
| C=C(C)Cn1cc(/C=C/C(=O)/C=C(\O)C(=O)O)c2ccccc21 [9b, (2Z,5E)-2-hydroxy-6-(1-(2-methylallyl)-1H-indol-3-yl)-4-oxohexa-2,5-dienoic acid] | > 30 | > 30 | remaining activity at 30 µM (SARS-CoV-2 nsp13 [1]): 72%; remaining activity at 30 µM (SARS-CoV-2 nsp13 [2]): 68% |

Source: publication PMC12344683, “N-alkyl and N-benzyl indoles are anti-SARS-CoV-2 agents and nsp13 inhibitors” (Journal of Enzyme Inhibition and Medicinal Chemistry, 2025)
